According to patent US10966994B2, “Thromboxane receptor antagonists” (ATXA THERAPEUTICS LIMITED, priority 2015, dated 2021):

Columns and labels:
TP = molecular target: T1, TP (Homo sapiens, UniProt P21731); experiment: U44069-mediated [Ca2+]i mobilization (CEREP); type: cell-based; conditions: CEREP assay, agonist U44069; read-out: IC50 Value for Inhibition of U44069-Mediated [Ca2+]i Mobilization
T1 construct: CEREP
T1 sequence (P21731 1-343): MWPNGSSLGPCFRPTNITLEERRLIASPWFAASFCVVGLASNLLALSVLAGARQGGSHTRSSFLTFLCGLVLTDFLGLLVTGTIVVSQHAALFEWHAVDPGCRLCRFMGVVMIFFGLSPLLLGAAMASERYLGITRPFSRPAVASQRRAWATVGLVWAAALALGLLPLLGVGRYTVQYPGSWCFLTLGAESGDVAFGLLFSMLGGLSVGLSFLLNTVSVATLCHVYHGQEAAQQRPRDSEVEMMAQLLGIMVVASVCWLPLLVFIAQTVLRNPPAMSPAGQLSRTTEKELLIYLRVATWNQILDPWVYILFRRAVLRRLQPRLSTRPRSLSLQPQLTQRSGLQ
Excerpt: FIG. 18 presents the effect of NTP42 and NTP48 on TP- or U44069-mediated signaling (CEREP use the related U44069 rather than U46619), including IC50 values for inhibition (see also Table 4). Those effects indicate that NTP42 & NTP48 are potent antagonists of U46609 or TP. The differences in IC50 values may be attributed to the differences in the particular conditions of the assay, including differences in cell type, agonist, calcium indicator, etc.
Table 4 is an example of the IC50 values of NTP42 and NTP48 to antagonize TP-mediated [Ca^2+]i mobilization following stimulation of cells with the alternative TP agonist […].

MCT-induced PAH = experiment: Monocrotoline (MCT)-induced model of pulmonary arterial hypertension (PAH) in rats; type: in vivo, rat; conditions: for lumen: total vessel diameter ratio versus animals treated with MCT-alone: day 28, oral BID, NTP42 and TP20 0.25 mg/kg/dose, Sildenafil 50 mg/kg/dose
Protocol: FIGS. 19-23 show the efficacy of NTP42 in the monocrotoline (MCT)-induced model of pulmonary arterial hypertension (PAH) in rats. In brief, male Wistar/Kyoto rats were given a single dose of MCT (60 mg/kg, subcutaneously) and then treated with twice daily doses (oral dosing) for 28 days with either the drug vehicle, the test article NTP42 (0.25 mg/kg/dose, BID) or with the reference compounds Sildenafil (50 mg/kg/dose, BID) or TP20 (0.25 mg/kg/dose, BID). As a control, a group of rats were left untreated, i.e., no MCT or therapeutic drugs. At Day 28, post-MCT induction, rats were anaesthetised for cardiac surgery & hemodynamic parameters recorded. Thereafter, the trachea, heart & lungs were removed en masse, the wet weights of the heart & lungs recorded and then the lungs were harvested, fixed and processed for histopathology.
Aperio's ImageScope was used to analyze the digitally scanned H&E stained lung sections, where 10 random squares (approx. size or each square=1×10^6 μm^2) per lower, middle and upper section of lung tissue were selected for analysis. Within each square, all blood arterioles (complete arterioles within each square and those touching the right & bottom were assessed but not the left or top of the squares) were measured in ImageScope for luminal and total vessel diameter where the ratio of lumen to total vessel diameter was determined for each arteriole.
FIGS. 24-27 show the effect of the test articles on the mean (±S.E.M.) lumen: total vessel diameter ratio for all arterioles (Total) and the arterioles categorized by size: small, <50 μm total diameter; medium, 50-100 μm and large, >100 μm.
FIG. 27 presents data representing the mean (±SEM) lumen: total vessel diameter ratio for large arterioles (>100 μm).

Compound	IC50 (TP) [nM]	efficacy in the MCT-induced PAH model (hemodynamic and histological features) (MCT-induced PAH; MCT 60 mg/kg s.c., oral 0.25 mg/kg/dose BID for 28 days)	lumen: total vessel diameter ratio versus animals treated with MCT-alone (MCT-induced PAH)
CC(C)(C)NC(=O)NS(=O)(=O)c1cc(C#N)ccc1Oc1cccc(-c2ccc(OC(F)F)cc2)c1 [NTP42]	3.28 ± 0.34	efficacious	significantly increased
CN(C)C(=O)c1ccc(-c2cccc(Oc3ccc(C#N)cc3S(=O)(=O)NC(=O)NC(C)(C)C)c2)cc1 [NTP48, 4-[3-[2-(tert-Butylcarbamoylsulfamoyl)-4-cyano-phenoxy]phenyl]-N,N-dimethyl-benzamide]	7.71 ± 0.96		
COc1ccc(-c2cccc(Oc3ccc([N+](=O)[O-])cc3S(=O)(=O)NC(=O)NC(C)(C)C)c2)cc1 [TP20, reference compound]			significantly increased
